Measurements reported in EP4623911A1, “PI4KB INHIBITORS FOR THE TREATMENT OF FATTY LIVER DISEASE” (ETH Zurich, priority 2024, dated 2025).
Entries after “also recorded” stand apart in the source; their conditions may differ.

System: murine NASH model
Assay: Murine NASH model (HFD, glucose/fructose drinking water, thermoneutral housing) treated with UCB9608
Type: in vivo, mice
Method: To model NASH in murine liver, male C57BL/6N mice were challenged with HFD for 24 weeks in conjunction with 18.9 g/L glucose&23.1 g/L fructose containing drinking water under thermoneutral housing condition (29°C) for 12 weeks before the administration of UCB9608 through HFD (15 mg/kg) for another 12 weeks. Then the mice were analysed in EcoMRI for body composition measurement before 6 hours fasting, followed by dissection to harvest liver and sample blood.
Total RNA was extracted from adipose depots, liver or in vitro cell cultures via Trizol reagent (Invitrogen) according to the manufacturer's instructions. Genomic DNA was removed from the crude RNA samples by DNase treatment (NEB BioLabs). For individual sample, 1 µg of total RNA was used to convert into cDNA library by using the High-Capacity cDNA Reverse transcription kit (Applied Biosystems, 4368813). Quantitative PCR was performed using KAPA SYBR FAST Universal kit (Roche, KK4618) on ViiA7 (Applied Biosystems) and the relative transcript levels were normalized to […] expression via ΔΔCt method. Table 2: Sequences of qPCR primers used in this study.
Plasma collected from mice under different conditions was used to determine levels of lipolysis and liver injury. FFA levels were measured via NEFA assay kit (Wako NEFA kit). TG levels were determined via TG assay kit (Roche Trig/GB reagent). ALT (MAK052, Sigma) and AST (MAK055, Sigma) assay kits were used to determine ALT and AST activity according to the manufacturer's instructions. The absorbance was monitored using Synergy Gen5 Platereader.
Weight of liver pieces (50-100 mg) was recorded before homogenization by 1 mL isopropanol per 50 mg tissue. The homogenates were incubated at room temperature with rotating before spinning down to remove debris at 2000×g for 10 min and collect supernatant. The TG levels were determined (Roche Trig/GB reagent) in Synergy Gen5 Platereader and normalized to the weight of liver pieces.
For NASH cohort, livers were dissected and fixed with 4% PFA in PBS for 24 h at 4°C. The samples were sent to the University of Zurich for histologic analyses. Briefly, liver tissues were dehydrated and embedded in paraffin and underwent section at 3 µm. The slides were stained with hematoxylin and eosin (H&E) and Gomori Green Trichrome directly or stained with anti-cleaved Caspase 3 after antigen retrieval. Afterwards, the images were captured by digital slide scanners and the grade of steatosis, ballooning, inflammation and fibrosis were quantified via the NASH Clinical Research Network Scoring System (Kleiner,D.E. et al. Hepatology 41, (2005)). To perform ORO staining, the fixed samples were sectioned, and the slides were stained via Oil Red O solution, followed by counter-staining with eosin. The images were acquired by digital slide scanners.

[1] = NASH mice, 12 weeks after administration of UCB9608
[2] = liver histology, NASH mice, UCB9608 vs vehicle

## COc1ccc(NC(=O)N2CCN(c3nc(N)nc4c3cnn4C)[C@@H](C)C2)c(C)c1 [UCB9608]
NASH livers, qPCR
  transcript levels of inflammatory markers: mitigation
NASH livers, qPCR, vs vehicle-treated control NASH mice
  fibrosis-related marker expression: substantially ameliorated
[1]
  TG levels in the plasma: reduction; also recorded: reduced
  lipolysis (plasma FFA levels): enhanced
NASH mice, UCB9608 12 weeks
  ALT activity in the plasma: reduction
  AST activity in the plasma: reduction
  hepatic TG levels: reduced
  liver mass/body weight ratio: reduced
NASH mice, UCB9608 through HFD (15 mg/kg) for 12 weeks
  body weight: significant loss
NASH mice, UCB9608 through HFD (15 mg/kg) for 12 weeks, EcoMRI
  fat mass: significant loss
[2]
  NAFLD activity score: significantly lower
  fibrosis grade: significantly lower
  inflammation levels: significantly lower
  liver injury: significantly lower
  steatosis grade: significantly lower
Liver of NASH mice, UCB9608 12 weeks
  fatty acid oxidation: significant elevation
